Key:
Format in all cases: functional, cell-based
[1] = target: Metabotropic glutamate receptor 1 (Rattus norvegicus) (UniProt P23385); assay: Negative allosteric modulation of rat mGluR1 expressed in HEK293 cells assessed as calcium mobilization at 30 uM by calcium mobilization assay relative to 100 uM glutamate
[2] = target: Metabotropic glutamate receptor 1 (Rattus norvegicus, UniProt P23385); assay: Negative allosteric modulation of rat mGluR1 expressed in HEK293 cells assessed as inhibition of glutamate induced calcium mobilization by calcium mobilization assay
[3] = target: Metabotropic glutamate receptor 5 (Rattus norvegicus, UniProt P31424); assay: Negative allosteric modulation of rat mGluR5 expressed in HEK293 cells assessed as inhibition of glutamate induced calcium mobilization by calcium mobilization assay
[4] = target: Metabotropic glutamate receptor 5 (Rattus norvegicus) (UniProt P31424); assay: Negative allosteric modulation of rat mGluR5 expressed in HEK293 cells assessed as calcium mobilization at 30 uM by calcium mobilization assay relative to 100 uM glutamate
[5] = target: Metabotropic glutamate receptor 1 (Homo sapiens, UniProt Q13255); assay: Negative allosteric modulation activity at recombinant human mGluR1a expressed in CHO cells assessed as inhibition of L-glutamate-induced intracellular Ca2+ mobilization
[6] = target: Metabotropic glutamate receptor 5 (Homo sapiens, UniProt P41594); assay: Negative allosteric modulation activity at recombinant human mGluR5a expressed in CHO cells assessed as inhibition of L-glutamate-induced intracellular Ca2+ mobilization

Chain of Metabotropic glutamate receptor 1 (Rattus norvegicus) (P23385 19-1199 limits assumed): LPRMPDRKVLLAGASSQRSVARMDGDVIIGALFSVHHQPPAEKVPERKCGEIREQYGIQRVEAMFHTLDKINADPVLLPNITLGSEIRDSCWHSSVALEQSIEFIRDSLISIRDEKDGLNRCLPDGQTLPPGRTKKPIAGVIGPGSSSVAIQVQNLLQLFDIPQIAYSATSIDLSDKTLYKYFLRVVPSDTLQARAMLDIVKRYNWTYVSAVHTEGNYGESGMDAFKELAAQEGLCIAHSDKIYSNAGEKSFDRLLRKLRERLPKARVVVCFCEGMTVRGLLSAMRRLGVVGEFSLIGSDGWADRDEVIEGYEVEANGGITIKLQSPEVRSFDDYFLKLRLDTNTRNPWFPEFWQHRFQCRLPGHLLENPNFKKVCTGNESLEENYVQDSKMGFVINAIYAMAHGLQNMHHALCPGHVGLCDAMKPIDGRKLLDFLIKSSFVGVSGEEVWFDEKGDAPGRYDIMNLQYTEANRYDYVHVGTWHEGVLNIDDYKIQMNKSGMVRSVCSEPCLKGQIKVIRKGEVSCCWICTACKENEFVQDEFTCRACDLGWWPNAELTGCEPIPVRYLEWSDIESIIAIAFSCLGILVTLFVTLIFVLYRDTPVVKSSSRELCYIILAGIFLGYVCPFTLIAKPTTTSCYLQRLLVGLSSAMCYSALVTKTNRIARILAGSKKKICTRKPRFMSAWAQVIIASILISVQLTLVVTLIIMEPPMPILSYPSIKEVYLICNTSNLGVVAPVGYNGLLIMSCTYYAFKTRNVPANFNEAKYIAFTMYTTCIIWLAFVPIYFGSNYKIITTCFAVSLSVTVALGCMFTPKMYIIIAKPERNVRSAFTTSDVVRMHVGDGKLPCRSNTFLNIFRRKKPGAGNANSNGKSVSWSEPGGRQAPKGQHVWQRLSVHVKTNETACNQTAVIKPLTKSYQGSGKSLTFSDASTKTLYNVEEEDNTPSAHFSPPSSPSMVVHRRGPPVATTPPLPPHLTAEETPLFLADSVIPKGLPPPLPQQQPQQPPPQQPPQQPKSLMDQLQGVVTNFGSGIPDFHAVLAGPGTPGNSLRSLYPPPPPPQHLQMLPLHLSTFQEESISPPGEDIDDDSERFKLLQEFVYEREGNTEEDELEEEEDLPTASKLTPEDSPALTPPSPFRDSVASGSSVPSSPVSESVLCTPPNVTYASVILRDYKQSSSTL
Chain of Metabotropic glutamate receptor 5 (Rattus norvegicus, UniProt P31424) (P31424 whole entry): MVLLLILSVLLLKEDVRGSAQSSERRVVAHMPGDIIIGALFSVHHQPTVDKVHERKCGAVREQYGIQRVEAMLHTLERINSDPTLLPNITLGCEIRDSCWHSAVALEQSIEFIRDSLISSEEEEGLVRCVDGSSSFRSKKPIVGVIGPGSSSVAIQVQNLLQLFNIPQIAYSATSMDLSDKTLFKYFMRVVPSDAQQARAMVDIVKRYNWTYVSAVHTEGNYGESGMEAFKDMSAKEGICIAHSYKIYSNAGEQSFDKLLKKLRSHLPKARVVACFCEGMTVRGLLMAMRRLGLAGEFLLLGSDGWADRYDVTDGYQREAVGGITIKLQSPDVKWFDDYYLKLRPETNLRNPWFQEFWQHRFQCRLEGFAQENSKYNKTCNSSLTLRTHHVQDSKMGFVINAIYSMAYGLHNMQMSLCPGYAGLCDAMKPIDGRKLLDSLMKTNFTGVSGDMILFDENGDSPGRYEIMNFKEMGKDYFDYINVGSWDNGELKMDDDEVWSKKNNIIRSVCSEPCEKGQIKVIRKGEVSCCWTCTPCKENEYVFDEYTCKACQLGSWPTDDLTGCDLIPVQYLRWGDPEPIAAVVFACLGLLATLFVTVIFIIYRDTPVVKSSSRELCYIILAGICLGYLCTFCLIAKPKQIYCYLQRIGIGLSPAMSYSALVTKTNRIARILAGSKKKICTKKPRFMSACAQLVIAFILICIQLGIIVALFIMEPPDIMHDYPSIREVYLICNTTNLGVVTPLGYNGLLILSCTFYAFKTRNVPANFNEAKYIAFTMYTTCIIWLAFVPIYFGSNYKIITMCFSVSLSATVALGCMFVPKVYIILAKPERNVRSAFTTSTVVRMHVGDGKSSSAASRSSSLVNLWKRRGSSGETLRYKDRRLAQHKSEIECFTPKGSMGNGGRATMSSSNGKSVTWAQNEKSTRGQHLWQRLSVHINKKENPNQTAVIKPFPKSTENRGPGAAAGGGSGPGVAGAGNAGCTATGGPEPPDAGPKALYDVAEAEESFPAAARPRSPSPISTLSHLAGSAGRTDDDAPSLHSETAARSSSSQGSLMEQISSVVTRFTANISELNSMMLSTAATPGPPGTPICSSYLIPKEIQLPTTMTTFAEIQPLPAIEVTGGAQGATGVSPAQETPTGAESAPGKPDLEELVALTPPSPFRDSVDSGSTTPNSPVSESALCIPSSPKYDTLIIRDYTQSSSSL
Chain of Metabotropic glutamate receptor 1 (Rattus norvegicus, UniProt P23385) (P23385 whole entry): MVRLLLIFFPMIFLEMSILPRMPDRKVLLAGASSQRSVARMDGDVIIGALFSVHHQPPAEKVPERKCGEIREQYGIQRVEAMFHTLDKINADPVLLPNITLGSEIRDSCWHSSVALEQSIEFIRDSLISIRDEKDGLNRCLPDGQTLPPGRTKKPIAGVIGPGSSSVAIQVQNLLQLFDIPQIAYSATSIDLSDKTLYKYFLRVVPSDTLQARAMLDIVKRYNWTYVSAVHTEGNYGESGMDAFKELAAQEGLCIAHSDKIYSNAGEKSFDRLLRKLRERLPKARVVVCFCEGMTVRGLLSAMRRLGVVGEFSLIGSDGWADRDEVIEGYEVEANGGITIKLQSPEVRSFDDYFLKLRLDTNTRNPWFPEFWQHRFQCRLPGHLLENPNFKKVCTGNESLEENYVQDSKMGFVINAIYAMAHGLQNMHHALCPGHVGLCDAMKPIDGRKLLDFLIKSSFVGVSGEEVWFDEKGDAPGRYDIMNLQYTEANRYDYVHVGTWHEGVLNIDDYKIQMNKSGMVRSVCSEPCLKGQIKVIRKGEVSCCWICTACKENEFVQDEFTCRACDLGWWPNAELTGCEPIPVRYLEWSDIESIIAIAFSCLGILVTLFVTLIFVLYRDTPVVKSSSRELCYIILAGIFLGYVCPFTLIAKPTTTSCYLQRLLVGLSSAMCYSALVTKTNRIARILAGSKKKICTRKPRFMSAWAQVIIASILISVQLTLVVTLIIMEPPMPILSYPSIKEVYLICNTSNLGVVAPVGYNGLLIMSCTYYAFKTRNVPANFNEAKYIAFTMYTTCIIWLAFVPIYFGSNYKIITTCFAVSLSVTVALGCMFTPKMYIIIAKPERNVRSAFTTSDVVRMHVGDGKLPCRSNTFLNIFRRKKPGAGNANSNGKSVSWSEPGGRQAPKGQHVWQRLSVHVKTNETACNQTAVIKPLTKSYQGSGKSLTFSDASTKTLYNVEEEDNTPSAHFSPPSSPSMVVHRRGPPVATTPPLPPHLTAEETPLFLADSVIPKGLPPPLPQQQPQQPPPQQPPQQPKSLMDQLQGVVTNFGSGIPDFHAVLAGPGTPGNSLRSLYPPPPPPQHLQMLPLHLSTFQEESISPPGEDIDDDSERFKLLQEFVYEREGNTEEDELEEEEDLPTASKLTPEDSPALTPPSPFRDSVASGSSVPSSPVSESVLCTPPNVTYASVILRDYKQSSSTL
Chain of Metabotropic glutamate receptor 5 (Rattus norvegicus) (P31424 21-1203 limits assumed): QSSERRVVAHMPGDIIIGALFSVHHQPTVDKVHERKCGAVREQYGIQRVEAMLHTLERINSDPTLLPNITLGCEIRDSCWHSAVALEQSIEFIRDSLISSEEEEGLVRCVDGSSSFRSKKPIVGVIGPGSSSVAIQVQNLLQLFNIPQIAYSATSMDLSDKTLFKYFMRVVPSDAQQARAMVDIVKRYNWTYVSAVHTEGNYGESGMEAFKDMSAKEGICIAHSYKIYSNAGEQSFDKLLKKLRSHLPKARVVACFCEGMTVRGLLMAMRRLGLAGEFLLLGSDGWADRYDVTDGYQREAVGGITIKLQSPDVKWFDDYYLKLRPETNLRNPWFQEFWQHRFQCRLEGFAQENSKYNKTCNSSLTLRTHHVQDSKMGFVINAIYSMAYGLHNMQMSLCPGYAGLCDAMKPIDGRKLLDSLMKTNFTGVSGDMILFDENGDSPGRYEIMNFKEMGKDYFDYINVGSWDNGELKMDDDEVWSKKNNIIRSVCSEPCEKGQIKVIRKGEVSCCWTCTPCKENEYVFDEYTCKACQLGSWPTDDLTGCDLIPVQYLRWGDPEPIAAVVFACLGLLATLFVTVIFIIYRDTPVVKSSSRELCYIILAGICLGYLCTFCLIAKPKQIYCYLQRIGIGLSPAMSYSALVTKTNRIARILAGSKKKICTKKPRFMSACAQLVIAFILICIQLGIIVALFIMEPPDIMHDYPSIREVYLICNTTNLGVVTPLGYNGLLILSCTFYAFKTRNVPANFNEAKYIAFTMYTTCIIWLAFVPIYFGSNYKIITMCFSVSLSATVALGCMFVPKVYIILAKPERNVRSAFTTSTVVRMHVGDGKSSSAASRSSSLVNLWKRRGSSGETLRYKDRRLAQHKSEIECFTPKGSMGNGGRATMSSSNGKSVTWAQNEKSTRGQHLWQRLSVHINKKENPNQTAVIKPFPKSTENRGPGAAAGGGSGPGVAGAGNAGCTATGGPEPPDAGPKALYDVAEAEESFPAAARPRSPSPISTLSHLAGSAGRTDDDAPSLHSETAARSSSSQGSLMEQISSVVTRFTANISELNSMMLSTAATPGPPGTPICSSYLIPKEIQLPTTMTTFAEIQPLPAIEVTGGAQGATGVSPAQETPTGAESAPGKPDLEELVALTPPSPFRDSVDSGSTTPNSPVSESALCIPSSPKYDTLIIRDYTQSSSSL

| Structure (SMILES) | %max [1] [%] | IC50 [2] [µM] | IC50 ([3]; read-out: IC50) [µM] | IC50 ([3]; read-out: pIC50 (converted)) [µM] | %max [4] [%] | IC50 ([3]; hek293, read-out: IC50) [µM] | pIC50 ([3]; hek293) | IC50 [5] [µM] | IC50 [6] [µM] |
| --- | --- | --- | --- | --- | --- | --- | --- | --- | --- |
| C[C@H]1CC[C@H](Nc2nc(N)nc3c2nn2ccccc32)CC1 | 0.58 | 5.6 | > 30 | > 31.6 | – | – | – | – | – |
| Cc1nc(N[C@@H]2C[C@@H]3C[C@H]([C@H]2C)C3(C)C)c2nn3ccccc3c2n1 | 2.4 | 0.759 | – | – | – | – | – | – | – |
| Cc1nc(N[C@H]2C[C@H]3CC[C@@]2(C)C3(C)C)c2nn3ccccc3c2n1 | 7.1 | – | > 30 | > 31.6 | – | – | – | – | – |
| c1ccn2nc3c(N[C@H]4C[C@@H]5CC[C@H]4C5)ncnc3c2c1 | 2.5 | 0.232 | – | > 10 | 9.9 | > 10 | – | – | – |
| C[C@H](Nc1ncnc2c1nn1ccccc21)C1CC1 | – | > 30 | > 30 | > 31.6 | – | – | – | – | – |
| c1ccn2nc3c(NC4CCCCCC4)ncnc3c2c1 | 2 | 0.225 | – | > 10 | 20 | > 10 | – | – | – |
| C[C@@H](Nc1ncnc2c1nn1ccccc21)C1CCCCC1 | 2.4 | – | > 10 | – | 18.4 | – | < 5 | – | – |
| c1ccn2nc3c(NC4CCCCCCC4)ncnc3c2c1 | 1.9 | 0.094 | 3.29 | – | 1.3 | – | – | – | – |
| CC(C)Nc1nc(N[C@H]2CC[C@H](C)CC2)c2nn3ccccc3c2n1 | – | > 30 | > 30 | > 31.6 | – | – | – | – | – |
| OCCSc1nc2c(c(NC3Cc4ccccc4C3)n1)CCCC2 | – | – | – | – | – | – | – | 0.028 | > 9.1 |
| C[C@@H](Nc1ncnc2c1nn1ccccc21)C1CC1 | 71.6 | > 10 | > 30 | > 31.6 | – | – | – | – | – |
| c1ccc2c(c1)CC(Nc1ncnc3c1nn1ccccc31)C2 | 2.1 | 0.247 | – | – | 17.2 | – | – | – | – |
| c1ccn2nc3c(NC45CC6CC(CC(C6)C4)C5)ncnc3c2c1 | 2.6 | 0.148 | 2.36 | – | 4.8 | – | – | – | – |
| C[C@H](Nc1ncnc2c1nn1ccccc21)C1CCCCC1 | 0.9 | – | > 10 | – | 61.8 | – | < 5 | – | – |
| OC12CC3CC(C1)CC(Nc1ncnc4c1nn1ccccc41)(C3)C2 | 2.4 | 0.484 | > 30 | > 31.6 | – | – | – | – | – |

Source: ChEMBL document CHEMBL3784934, “N-Alkylpyrido[1',2':1,5]pyrazolo-[4,3-d]pyrimidin-4-amines: A new series of negative allosteric modulators of mGlu1/5 with CNS exposure in rodents” (Bioorg Med Chem Lett, 2016)
